Laboratory results taken from US9839642B2, “Beta-tetrazolyl-propionic acids as metallo-beta-lactamase inhibitors” (priority 2014, dated 2017).
Read-outs that look alike come from different tables or passages of the source.

Assays:
[1] = tested on: Serratia marcescens expressing IMP-1 (CL5741); test: Antibiotic potentiation activity: synergistic concentration (MITC95) with imipenem, growth by OD600; format: cell-based
Outline: (§1)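 MITC95 = lowest inhibitor concentration giving 95% growth inhibition, read by absorbance after 22–24 h at 35° C. Compound range 200 μM to 0.195 μM, imipenem fixed at 1 or 4 μg/ml, bacteria in 1.1×CAMHB from saline suspension diluted 1:100.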

[2] = tested on: Klebsiella pneumoniae expressing VIM-1 (IHMA599644); test: as above; format: cell-based
Outline: as §1

[3] = tested on: Escherichia coli expressing NDM-1 (CLB30016); test: as above; format: cell-based
Outline: as §1

NDM-1 = NDM-1 (Klebsiella pneumoniae, UniProt C7C422); test: Enzyme activity: determination of IC50, fluorescence assay with CCF2-FA substrate; format: biochemical; conditions: CCF2-FA 1.25 μM, 2 hours at 25° C., read-out: NDM1 IC50
Outline: (§2)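 In pH 7 phosphate buffer (100 mM) with 10 μM ZnSO4 and 0.005% Tween-20, CCF2-FA substrate (1.25 μM final) was hydrolysed for 2 h at 25 °C by NDM-1, IMP-1 or VIM-1 at 1, 2 or 30 pM in the presence of inhibitor at 20–0.00063 μM. Emission 460 nm/excitation 405 nm; 4-parameter curve fit gave IC50.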

IMP-1 = IMP-1 (Serratia marcescens, UniProt P52699); test: as above; format: biochemical; conditions: CCF2-FA 1.25 μM, 2 hours at 25° C., read-out: IMP1 IC50
Outline: as §2

VIM-1 = VIM-1 (Pseudomonas aeruginosa, UniProt A0A0F7KYQ8); test: as above; format: biochemical; conditions: CCF2-FA 1.25 μM, 2 hours at 25° C., read-out: VIM1 IC50
Outline: as §2

[4] = S. marcescens CL5741 (IMP-1), 95% inhibition of growth
[5] = K. pneumoniae IHMA599644 (VIM-1), 95% inhibition of growth
[6] = E. coli CLB30016 (NDM-1), 95% inhibition of growth
[7] = 95% inhibition of bacterial growth, strain CL5741
[8] = 95% inhibition of bacterial growth, strain IHMA599644
[9] = 95% inhibition of bacterial growth, strain CLB30016

NDM-1, sequence (C7C422 29-270, looked up, species assumed): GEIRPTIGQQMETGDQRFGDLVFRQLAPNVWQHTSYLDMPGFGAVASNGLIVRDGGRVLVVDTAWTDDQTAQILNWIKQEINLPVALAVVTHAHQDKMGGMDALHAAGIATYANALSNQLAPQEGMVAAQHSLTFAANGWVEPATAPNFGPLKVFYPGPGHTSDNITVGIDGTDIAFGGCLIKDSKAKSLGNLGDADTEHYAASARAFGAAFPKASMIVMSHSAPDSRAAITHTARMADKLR
IMP-1, sequence (P52699 19-246, looked up, species assumed): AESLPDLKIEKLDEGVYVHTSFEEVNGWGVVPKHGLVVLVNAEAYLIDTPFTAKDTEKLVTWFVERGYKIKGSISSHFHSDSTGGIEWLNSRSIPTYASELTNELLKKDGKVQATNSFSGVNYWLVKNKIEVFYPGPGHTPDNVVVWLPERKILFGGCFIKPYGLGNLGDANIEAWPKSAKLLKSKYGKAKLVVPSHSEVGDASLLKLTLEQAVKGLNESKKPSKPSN

Row | Structure (SMILES) | IMP1 SM5741 MITC95 [1, 4] | VIM1 KP599644 MITC95 [2, 5] | NDM1 EC30016 MITC95 [3, 6] | IC50 (NDM-1; NDM-1 enzyme 1 pM) | IC50 (IMP-1; IMP-1 enzyme 2 pM) | IC50 (VIM-1; VIM-1 enzyme 30 pM) | IMP1 SM5741 MITC95 [1, 7] | VIM1 KP599644 MITC95 [2, 8] | NDM1 EC30016 MITC95 [3, 9] | IC50 (NDM-1; enzyme 1 pM) | IC50 (IMP-1; enzyme 2 pM) | IC50 (VIM-1; enzyme 30 pM)
1 | CCC[C@H](C(=O)O)[C@H](Cc1cccc2nsnc12)c1nnn[nH]1 [Example 272, (2S)-2-[(1S)-2-(2,1,3-benzothiadiazol-4-yl)-1-(1H-tetrazol-5-yl)ethyl]pentanoic acid] | 38 µM | 9.4 µM | 4.7 µM | 12 nM | 600 nM | 0.35 nM |  |  |  |  |  | 
2 | CC(C)[C@H](C(=O)O)[C@H](Cc1ccccc1C1=CCNC1)c1nnn[nH]1 [Example 70, (2S,3S)-4-(2-(2,5-dihydro-1H-pyrrol-3-yl)phenyl)-2-isopropyl-3-(1H-tetrazol-5-yl)butanoic acid] |  |  |  |  |  |  | >200 µM | 50 µM | 12.5 µM | 180 nM | > 20000 nM | 240 nM
3 | CNC(=O)C1CCCN(c2ccc(C[C@H](c3nnn[nH]3)[C@H](CC(C)C)C(=O)O)cn2)C1 (stereo partly drawn) [Example 311, (2S)-4-methyl-2-[(1S)-2-{6-[3-(methylcarbamoyl)piperidin-1-yl]pyridin-3-yl}-1-(1H-tetrazol-5-yl)ethyl] pentanoic acid] | 9.4 µM | 100 µM | 6.2 µM | 87 nM | 150 nM | 26 nM |  |  |  |  |  | 
4 | CC(C)C[C@H](C(=O)O)[C@H](Cc1ccc(N2CC(O)(C(F)(F)F)C2)nc1)c1nnn[nH]1 [Example 338, (2S)-2-[(1S)-2-{6-[3-hydroxy-3-(trifluoromethyl)azetidin-1-yl]pyridin-3-yl}-1-(1H-tetrazol-5-yl)ethyl]-4-methylpentanoic acid] | 9.4 µM | 150 µM | 31 µM | 110 nM | 200 nM | 38 nM |  |  |  |  |  | 
5 | CCC[C@H](C(=O)O)[C@H](Cc1ccc(NC)cn1)c1nnn[nH]1 [Example 151] |  |  |  |  |  |  | 100 µM | 12.5 µM | 0.39 µM | 300 nM | 7900 nM | 120 nM
6 | CC(C)C[C@H](C(=O)O)[C@H](Cc1ccc(CN(C)C)c(F)c1)c1nn[nH]n1.O=C(O)C(F)(F)F [Example 443, 1-(4-((2S,3S)-3-carboxy-5-methyl-2-(2H-tetrazol-5-yl)hexyl)-2-fluorophenyl)-N,N-dimethylmethanaminium 2,2,2-trifluoroacetate] | 37.5 µM | 25 µM | 12.5 µM | 298 nM | 1060 nM | 4.29 nM |  |  |  |  |  | 
7 | CCC[C@H](C(=O)O)[C@H](Cc1ccc(C2CCN(C(=N)N)C2)cc1)c1nnn[nH]1 (stereo partly drawn) [Example 414, (2S)-2-((1S)-2-(4-(1-carbamimidoylpyrrolidin-3-yl)phenyl)-1-(1H-tetrazol-5-yl)ethyl)pentanoic acid] | 9.375 µM | 12.5 µM | 4.688 µM | 69 nM | 214 nM | 1.52 nM |  |  |  |  |  | 
8 | O=C(O)[C@@H](CCCC1CCNCC1)[C@H](Cc1ccc(C2=CCNC2)cc1)c1nnn[nH]1 [Example 433, (S)-2-((S)-2-(4-(2,5-dihydro-1H-pyrrol-3-yl)phenyl)-1-(1H-tetrazol-5-yl)ethyl)-5-(piperidin-4-yl)pentanoic acid compound with 222,-trifluroacetic acid (1:2)] | 100 µM | 12.5 µM | 12.5 µM | 87 nM | 2000 nM | 10.1 nM |  |  |  |  |  | 
9 | CC(C)[C@H](C(=O)O)[C@H](Cc1ccc(NCCN)nc1)c1nnn[nH]1 [Example 140, (2S,3S)-4-(6-((2-aminoethyl)amino)pyridin-3-yl)-2-isopropyl-3-(1H-tetrazol-5-yl)butanoic acid] |  |  |  |  |  |  | 75 µM | 12.5 µM | 1.6 µM | 320 nM | > 20000 nM | 8.7 nM
10 | CCC[C@H](C(=O)O)[C@H](Cc1ccc(C2CCN(C=N)CC2)cc1)c1nnn[nH]1 [Example 297, (S)-2-((S)-2-(4-(1-(iminomethyl)piperidin-4-yl)phenyl)-1-(1H-tetrazol-5-yl)ethyl)pentanoic acid] | 6.2 µM | 18.8 µM | 4.7 µM | 26 nM | 200 nM | 25 nM |  |  |  |  |  | 
11 | CCC[C@H](C(=O)O)[C@H](Cc1cccc(-c2ccncc2)c1)c1nn[nH]n1 [Example 353, (2S)-2-[(1S)-2-(3-pyridin-4-ylphenyl)-1-(2H-tetrazol-5-yl)ethyl]pentanoic acid] | 6.2 µM | 100 µM | 38 µM | 13 nM | 160 nM | 2.3 nM |  |  |  |  |  | 
12 | Nc1ccc(-c2ccc(C[C@H](c3nnn[nH]3)[C@@H](C(=O)O)C3CCCC3)cc2)cn1 [Example 72, (2S,3S)-4-(4-(6-aminopyridin-3-yl)phenyl)-2-cyclopentyl-3-(1H-tetrazol-5-yl)butanoic acid] |  |  |  |  |  |  | 0.39 µM | 12.5 µM | 6.2 µM | 5.6 nM | 19 nM | 3.8 nM
13 | CC(C)C[C@H](C(=O)O)[C@H](Cc1ccc(N2CC3(CCNC3)C2)nc1)c1nnn[nH]1 [Example 336, (2S)-2-[(1S)-2-[6-(2,6-diazaspiro[3.4]oct-2-yl)pyridin-3-yl]-1-(1H-tetrazol-5-yl)ethyl]-4-methylpentanoic acid] | 25 µM | 25 µM | 3.1 µM | 180 nM | 1200 nM | 20 nM |  |  |  |  |  | 
14 | CCC[C@H](C(=O)O)[C@H](Cc1ccc(-c2ccc(-c3nn[nH]n3)cc2)nc1)c1nn[nH]n1 [Example 97, (S)-2-((S)-2-(6-(4-(2H-tetrazol-5-yl)phenyl)pyridin-3-yl)-1-(1H-tetrazol-5-yl)ethyl)pentanoic acid] |  |  |  |  |  |  | 31 µM | 200 µM | 100 µM | 1.2 nM | 380 nM | 5.9 nM
15 | CCC[C@H](C(=O)O)[C@H](CCc1ccccc1)c1nnn[nH]1 [Example 266, (2S,3S)-5-phenyl-2-propyl-3-(1H-tetrazol-5-yl)pentanoic acid] | 38 µM | 25 µM | 12.5 µM | 190 nM | 1000 nM | 20 nM |  |  |  |  |  | 
16 | CC(C)C[C@H](C(=O)O)[C@H](Cc1ccc(CN2CCC(O)C2)c(F)c1)c1nn[nH]n1.O=C(O)C(F)(F)F (stereo partly drawn) [Example 439, 5-((2S,3S)-3-carboxy-1-(3-fluoro-4-((3-hydroxypyrrolidin-1-yl)methyl)phenyl)-5-methylhexan-2-yl)-2H-tetrazol-3-ium 2,2,2-trifluoroacetate] | 37.5 µM | 37.5 µM | 31.25 µM | 225 nM | 483 nM | 4.32 nM |  |  |  |  |  | 
17 | CC(C)C[C@H](C(=O)O)[C@H](Cc1ccc(N2CC(CCO)C2)nc1)c1nnn[nH]1 [Example 333, (2S)-2-[(1S)-2-{6-[3-(2-hydroxyethyl)azetidin-1-yl]pyridin-3-yl}-1-(1H-tetrazol-5-yl)ethyl]-4-methylpentanoic acid] | 12.5 µM | 38 µM | 1.6 µM | 58 nM | 170 nM | 8.2 nM |  |  |  |  |  | 
18 | CCC[C@H](C(=O)O)[C@H](Cc1cc(C(F)(F)F)cc(C(F)(F)F)c1)c1nnn[nH]1 [Example 269, (2S)-2-[(1S)-2-[3,5-bis(trifluoromethyl)phenyl]-1-(1H-tetrazol-5-yl)ethyl]pentanoic acid] | 38 µM | 38 µM | 18.8 µM | 36 nM | 1500 nM | 0.76 nM |  |  |  |  |  | 
19 | CC(C)[C@H](C(=O)O)[C@H](Cc1ccc(Br)nc1)c1nnn[nH]1 [Example 91, (2S,3S)-4-(6-bromopyridin-3-yl)-2-isopropyl-3-(1H-tetrazol-5-yl)butanoic acid] |  |  |  |  |  |  | 50 µM | 12.5 µM | 7.8 µM | 32 nM | 2200 nM | 7.9 nM
